Results on one molecule are retold here after US20160310434A1, “GASTRO-RETENTIVE ORAL PHARMACEUTICAL COMPOSITIONS” (ETHYPHARM, priority 2013, published 2016).

Type in all cases: physicochemical
Data set [1] is described as follows: pH of a saturated solution of baclofen. An excerpt:
(§1) Baclofen (below) is a BCS class III molecule.

The nature of the next data set: pKa of baclofen.
Text: as §1

Another data set in a line: Solubilities of baclofen.
Text: as §1

A short description of a further data set: Log P of baclofen.
Text: as §1
At usual therapeutic doses, baclofen is known to have good oral bioavailability. However, its low log P indicates some hydrophilicity and thus low permeability. This observation is explained by the presence of specific transporters at the small intestine allowing the molecule to pass. This is even greater at the jejunum. […] This region of the digestive system contains no transporters but since the molecule is hydrophilic and of small size, weak passive transport through the tight junctions is possible. It thus appears that when a higher plasma concentration of baclofen is required, the taking of a higher dose is not effective due to saturation of the transporters. The clinical solution is thus to take small doses at shorter time intervals, which can quickly become burdensome for the patient.

Each structure is given as a SMILES string.

Broadly, the Log P is a log measure of how a compound divides between an organic and an aqueous phase. As to `NCC(CC(=O)O)c1ccc(Cl)cc1` (stereo not drawn) [baclofen, Baclofen], in data set [1], the “pH of a saturated solution” value turned out to be 6.5. In addition, the pKa1 entry in “pKa of baclofen” was “pKa1 = 3.87”. Besides, the pKa2 entry in the data set “pKa of baclofen” is reported as “pKa2 = 9.62”. Also, the Solubility entry is listed as “Soluble: 0.1N HCl, 0.1N NaOH” in the data set “Solubilities of baclofen” (0.1N HCl); “Soluble: 0.1N HCl, 0.1N NaOH” in the data set “Solubilities of baclofen” (0.1N NaOH); “Very slightly soluble: ethanol, methanol” in the data set “Solubilities of baclofen” (ethanol); “Very slightly soluble: ethanol, methanol” in the data set “Solubilities of baclofen” (methanol); “Slightly soluble: water (3 mg/ml)” in the data set “Solubilities of baclofen” (water). In the data set “Log P of baclofen”, the lipophilicity (Log P) is reported as −1.
